According to patent US8703451B2, “Method for the production of free carboxylic acids” (priority 2008, dated 2014):

Columns and labels:
[1] = system: Ralstonia eutropha PHB-4 (reclassified as Cupriavidus necator, DSMZ 541); type: cell-based; conditions: 0.5%, 1%, 5% and 10% (w/v) TOA; over a period of 20 hours (fermentation time 46-65 hours)
Procedure: Biocompatibility of TOA (trioctylamine) with Ralstonia eutropha Cultures of Ralstonia eutropha PHB-4 (reclassified as Cupriavidus necator, DSMZ 541) transformed with the plasmid: pBBR1MCS-2::icmA-icmB with SEQ ID No. 1 were fermented on a 400 ml scale in a standard medium for 46 hours to an OD (optical density at 600 nm) of ca. 30, which corresponds to a CFU (colony formed units) of 1×10^11 per ml, under standard conditions (30° C.; pH 6.8; rpm 250-750; pO2 20%).
After a fermentation time of 48 hours, 0.5%, 1%, 5% and 10% (w/v) trioctylamine (TOA) were added under sterile conditions. After a further 6 and 20 hours the CFU were determined.
To ascertain the CFU, dilution series of the broths were prepared. The dilutions were plated out onto agar plates and incubated for 24 hours at 30° C.
The values are summarized in the table below, the CFU values are standardized to 1 ml of fermentation broth.

[2] = system: Ralstonia eutropha PHB-4 (reclassified as Cupriavidus necator, DSMZ 541); type: cell-based; conditions: 1, 5 and 10% (w/v) TOA; shake flasks, 24 h, 30° C., 140 rpm
Procedure: 2-Hydroxyisobutyric-acid-producing Ralstonia eutropha PHB-4 (reclassified as Cupriavidus necator, DSMZ 541), which have been transformed with the plasmid pBBR1MCS-2::icmA-icmB, SEQ ID No. 1, were grown as two 50 ml cultures in a shaking incubator under standard conditions (30° C., 140 rpm, 20 h) in LB medium.
From this, for the biomass production, 5×10 ml were inoculated over into 40 ml of modified mineral salt medium (in accordance with Schlegel et al., 1961) and incubated for 10 h under standard conditions
The biomass cultures were centrifuged off and resuspended in 10 ml of modified mineral salt medium.
Using the resuspensions, 5 flasks of a Ramos shaking incubator (Respiration Activity Monitoring System) were inoculated. The flasks were filled with modified mineral salt medium (addition of 1 g/l of yeast extract and 15 g/l of fructose) with vitamin B12 (60 mg/l). 3 flasks additionally comprised 1, 5 and 10% (w/v) of trioctylamine (TOA).
The flasks were incubated for 24 h under standard conditions (30° C., 140 rpm).
After 0, 15 and 24 hours, samples were taken and CFU (OD), pH, and 2HIB concentration in the broth were determined.
For the CFU determination, dilution series of the broths were prepared. The dilutions were plated out onto LB agar plates with 300 mg/l of Kanamycin and incubated for 24 h at 30° C. A 4-fold determination of the dilutions 10^−8 and 10^−9 was carried out.

Question: Which results are given for CCCCCCCCN(CCCCCCCC)CCCCCCCC [TOA, trioctylamine]?
Answer: Change of CFU in the presence of TOA [1]: increased further; Influence on cell growth (CFU, FIG. 1) [2]: not influenced
